Legend:
[1] = molecular target: Mitogen-activated protein kinase kinase kinase 1 (Homo sapiens) (UniProt Q13233)
[2] = molecular target: Serine/threonine-protein kinase Nek6 (Homo sapiens) (UniProt Q9HC98)
[3] = molecular target: Receptor tyrosine-protein kinase erbB-4 (Homo sapiens) (UniProt Q15303)
[4] = molecular target: Serine/threonine-protein kinase OSR1 (Homo sapiens) (UniProt O95747)
[5] = molecular target: Transient receptor potential cation channel subfamily M member 6 (Homo sapiens) (UniProt Q9BX84)
Rattus norvegicus = species on record: Rattus norvegicus; conditions: Compound concentration 10.0 uM
[6] = molecular target: Cyclin-dependent kinase 4 (Homo sapiens) (UniProt P11802)
[7] = system: Phosphatidylinositol 4,5-bisphosphate 3-kinase catalytic subunit alpha isoform (Homo sapiens), P42336 [E545K]
[8] = molecular target: Histamine H2 receptor (Homo sapiens) (UniProt P25021); conditions: Compound concentration 10.0 uM
[9] = molecular target: SNF-related serine/threonine-protein kinase (Homo sapiens) (UniProt Q9NRH2)
[10] = system: Hepatocyte growth factor receptor (Homo sapiens), P08581 [Y1235D]
[11] = molecular target: Myosin light chain kinase family member 4 (Homo sapiens) (UniProt Q86YV6)
[12] = molecular target: Serine/threonine-protein kinase 35 (Homo sapiens) (UniProt Q8TDR2)
[13] = system: Mast/stem cell growth factor receptor Kit (Homo sapiens), P10721 [V559D]
[14] = molecular target: Serine/threonine-protein kinase 36 (Homo sapiens) (UniProt Q9NRP7)
Chain of Serine/threonine-protein kinase 36 (Homo sapiens) (Q9NRP7 whole entry): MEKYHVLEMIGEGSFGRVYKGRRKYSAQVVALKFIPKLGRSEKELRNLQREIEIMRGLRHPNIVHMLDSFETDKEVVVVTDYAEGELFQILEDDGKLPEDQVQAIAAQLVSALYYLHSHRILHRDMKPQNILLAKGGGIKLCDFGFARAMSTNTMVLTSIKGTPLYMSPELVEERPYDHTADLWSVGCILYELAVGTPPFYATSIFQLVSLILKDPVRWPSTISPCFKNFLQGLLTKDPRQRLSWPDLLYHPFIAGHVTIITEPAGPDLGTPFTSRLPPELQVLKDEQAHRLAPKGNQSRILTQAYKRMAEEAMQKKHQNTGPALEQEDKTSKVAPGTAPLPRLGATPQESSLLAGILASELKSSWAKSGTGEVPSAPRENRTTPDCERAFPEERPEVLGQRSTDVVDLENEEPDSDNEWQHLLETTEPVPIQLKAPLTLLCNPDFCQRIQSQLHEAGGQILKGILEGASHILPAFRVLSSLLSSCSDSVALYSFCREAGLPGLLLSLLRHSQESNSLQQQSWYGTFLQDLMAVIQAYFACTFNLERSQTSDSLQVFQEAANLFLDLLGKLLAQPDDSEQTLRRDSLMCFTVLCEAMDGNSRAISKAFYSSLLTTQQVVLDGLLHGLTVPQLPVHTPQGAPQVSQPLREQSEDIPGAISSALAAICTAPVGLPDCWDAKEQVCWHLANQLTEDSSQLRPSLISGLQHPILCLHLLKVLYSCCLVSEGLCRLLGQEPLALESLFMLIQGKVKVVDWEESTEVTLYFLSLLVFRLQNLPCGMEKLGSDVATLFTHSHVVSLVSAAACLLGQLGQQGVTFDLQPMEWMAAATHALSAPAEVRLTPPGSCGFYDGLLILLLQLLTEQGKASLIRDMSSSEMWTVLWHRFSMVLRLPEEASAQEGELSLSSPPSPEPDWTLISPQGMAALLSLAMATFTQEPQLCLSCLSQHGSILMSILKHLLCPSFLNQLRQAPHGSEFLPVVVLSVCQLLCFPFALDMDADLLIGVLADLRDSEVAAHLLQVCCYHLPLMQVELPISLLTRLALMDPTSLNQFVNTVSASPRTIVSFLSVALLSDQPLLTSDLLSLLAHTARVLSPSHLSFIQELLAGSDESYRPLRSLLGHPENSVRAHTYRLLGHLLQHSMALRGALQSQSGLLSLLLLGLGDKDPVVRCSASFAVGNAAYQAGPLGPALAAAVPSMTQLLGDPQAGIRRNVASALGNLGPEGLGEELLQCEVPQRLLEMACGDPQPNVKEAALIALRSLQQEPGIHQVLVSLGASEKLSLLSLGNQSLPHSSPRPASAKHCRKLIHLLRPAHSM

[15] = molecular target: Calcium/calmodulin-dependent protein kinase type II subunit gamma (Homo sapiens) (UniProt Q13555)
[16] = molecular target: Tyrosine-protein kinase Lck (Homo sapiens) (UniProt P06239)
Chain of Tyrosine-protein kinase Lck (Homo sapiens) (P06239 2-509 limits assumed): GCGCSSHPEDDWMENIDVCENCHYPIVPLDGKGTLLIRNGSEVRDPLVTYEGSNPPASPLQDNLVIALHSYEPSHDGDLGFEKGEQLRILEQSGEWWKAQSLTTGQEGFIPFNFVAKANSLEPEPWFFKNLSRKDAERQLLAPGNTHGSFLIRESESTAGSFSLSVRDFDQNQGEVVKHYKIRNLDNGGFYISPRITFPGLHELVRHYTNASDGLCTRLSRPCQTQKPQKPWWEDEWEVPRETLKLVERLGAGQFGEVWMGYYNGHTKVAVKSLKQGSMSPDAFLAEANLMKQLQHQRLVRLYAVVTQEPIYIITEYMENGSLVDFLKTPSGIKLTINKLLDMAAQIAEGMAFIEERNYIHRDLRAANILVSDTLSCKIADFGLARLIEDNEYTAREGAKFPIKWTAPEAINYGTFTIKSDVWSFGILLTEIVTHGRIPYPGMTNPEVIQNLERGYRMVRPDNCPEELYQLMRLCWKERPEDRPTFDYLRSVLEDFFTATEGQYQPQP

[17] = molecular target: Serine/threonine-protein kinase ICK (Homo sapiens) (UniProt Q9UPZ9)
[18] = molecular target: G protein-coupled receptor kinase 3 (Homo sapiens) (UniProt P35626)
[19] = molecular target: Dual specificity protein kinase CLK1 (Homo sapiens, UniProt P49759)
[20] = molecular target: 5-hydroxytryptamine receptor 2C (Homo sapiens) (UniProt P28335); conditions: Compound concentration 10.0 uM
[21] = molecular target: Serine/threonine-protein kinase MRCK alpha (Homo sapiens) (UniProt Q5VT25)
[22] = molecular target: Leucine-rich repeat serine/threonine-protein kinase 2 (Homo sapiens) (UniProt Q5S007)
[23] = molecular target: Casein kinase II subunit alpha' (Homo sapiens) (UniProt P19784)
[24] = molecular target: Dual specificity protein kinase CLK3 (Homo sapiens) (UniProt P49761)
[25] = system: Fibroblast growth factor receptor 3 (Homo sapiens), P22607 [G697C]
[26] = molecular target: Homeodomain-interacting protein kinase 4 (Homo sapiens) (UniProt Q8NE63)
Chain of Homeodomain-interacting protein kinase 4 (Homo sapiens) (Q8NE63 whole entry): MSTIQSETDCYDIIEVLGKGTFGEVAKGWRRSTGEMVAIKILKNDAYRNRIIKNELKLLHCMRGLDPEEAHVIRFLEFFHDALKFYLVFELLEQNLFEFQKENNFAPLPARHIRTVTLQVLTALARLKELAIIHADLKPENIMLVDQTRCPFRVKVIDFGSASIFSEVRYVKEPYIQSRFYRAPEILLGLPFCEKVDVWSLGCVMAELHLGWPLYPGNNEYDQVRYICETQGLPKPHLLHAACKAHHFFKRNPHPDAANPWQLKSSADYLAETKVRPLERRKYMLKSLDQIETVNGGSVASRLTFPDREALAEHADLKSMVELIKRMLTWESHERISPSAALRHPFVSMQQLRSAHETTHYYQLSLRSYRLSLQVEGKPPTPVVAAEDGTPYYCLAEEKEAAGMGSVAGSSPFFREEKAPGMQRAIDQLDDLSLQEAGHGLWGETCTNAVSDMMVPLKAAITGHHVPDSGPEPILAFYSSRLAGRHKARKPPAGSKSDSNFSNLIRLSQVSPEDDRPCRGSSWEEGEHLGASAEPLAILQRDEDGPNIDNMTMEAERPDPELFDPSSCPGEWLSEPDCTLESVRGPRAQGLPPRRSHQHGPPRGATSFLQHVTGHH

[27] = molecular target: SRSF protein kinase 2 (Homo sapiens) (UniProt P78362)
[28] = molecular target: Casein kinase I isoform alpha-like (Homo sapiens) (UniProt Q8N752)
[29] = molecular target: RAF proto-oncogene serine/threonine-protein kinase (Homo sapiens) (UniProt P04049)
[30] = system: Proto-oncogene tyrosine-protein kinase receptor Ret (Homo sapiens), P07949 [M918T]
[31] = molecular target: Interleukin-1 receptor-associated kinase 4 (Homo sapiens) (UniProt Q9NWZ3)
[32] = molecular target: Ribosomal protein S6 kinase alpha-4 (Homo sapiens) (UniProt O75676)
Chain of Ribosomal protein S6 kinase alpha-4 (Homo sapiens) (O75676 whole entry, looked up): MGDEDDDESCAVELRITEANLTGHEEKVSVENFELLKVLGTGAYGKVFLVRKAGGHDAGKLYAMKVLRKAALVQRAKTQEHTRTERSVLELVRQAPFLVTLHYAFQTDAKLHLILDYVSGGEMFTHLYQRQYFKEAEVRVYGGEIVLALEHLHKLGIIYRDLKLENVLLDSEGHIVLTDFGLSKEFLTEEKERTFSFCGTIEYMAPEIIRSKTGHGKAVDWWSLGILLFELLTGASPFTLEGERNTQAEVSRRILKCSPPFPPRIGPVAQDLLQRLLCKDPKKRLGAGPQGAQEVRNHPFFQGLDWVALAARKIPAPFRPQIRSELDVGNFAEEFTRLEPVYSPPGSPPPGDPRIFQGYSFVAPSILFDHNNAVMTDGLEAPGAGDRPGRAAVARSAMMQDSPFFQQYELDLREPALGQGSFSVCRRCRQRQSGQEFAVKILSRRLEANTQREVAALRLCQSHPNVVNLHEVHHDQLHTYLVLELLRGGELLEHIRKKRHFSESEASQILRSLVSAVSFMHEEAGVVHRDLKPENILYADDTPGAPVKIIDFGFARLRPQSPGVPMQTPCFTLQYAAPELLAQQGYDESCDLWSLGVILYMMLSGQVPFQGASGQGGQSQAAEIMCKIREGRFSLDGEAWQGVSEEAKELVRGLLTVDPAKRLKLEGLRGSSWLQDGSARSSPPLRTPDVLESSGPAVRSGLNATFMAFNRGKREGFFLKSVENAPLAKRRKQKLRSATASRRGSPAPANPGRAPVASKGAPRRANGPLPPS

[33] = molecular target: Serine/threonine-protein kinase PLK3 (Homo sapiens) (UniProt Q9H4B4)
[34] = molecular target: AP2-associated protein kinase 1 (Homo sapiens) (UniProt Q2M2I8)
[35] = molecular target: Atypical kinase COQ8A, mitochondrial (Homo sapiens) (UniProt Q8NI60)
[36] = molecular target: Cyclin-dependent kinase 2 (Homo sapiens) (UniProt P24941)
[37] = molecular target: Protein kinase C epsilon type (Homo sapiens) (UniProt Q02156)
[38] = molecular target: RAC-gamma serine/threonine-protein kinase (Homo sapiens) (UniProt Q9Y243)
[39] = system: Tyrosine-protein kinase ABL1 (Homo sapiens), P00519 [Y253F]
[40] = Compound concentration 100.0 nM
[41] = Compound concentration 1000.0 nM

Chain of Mitogen-activated protein kinase kinase kinase 1 (Homo sapiens) (Q13233 whole entry): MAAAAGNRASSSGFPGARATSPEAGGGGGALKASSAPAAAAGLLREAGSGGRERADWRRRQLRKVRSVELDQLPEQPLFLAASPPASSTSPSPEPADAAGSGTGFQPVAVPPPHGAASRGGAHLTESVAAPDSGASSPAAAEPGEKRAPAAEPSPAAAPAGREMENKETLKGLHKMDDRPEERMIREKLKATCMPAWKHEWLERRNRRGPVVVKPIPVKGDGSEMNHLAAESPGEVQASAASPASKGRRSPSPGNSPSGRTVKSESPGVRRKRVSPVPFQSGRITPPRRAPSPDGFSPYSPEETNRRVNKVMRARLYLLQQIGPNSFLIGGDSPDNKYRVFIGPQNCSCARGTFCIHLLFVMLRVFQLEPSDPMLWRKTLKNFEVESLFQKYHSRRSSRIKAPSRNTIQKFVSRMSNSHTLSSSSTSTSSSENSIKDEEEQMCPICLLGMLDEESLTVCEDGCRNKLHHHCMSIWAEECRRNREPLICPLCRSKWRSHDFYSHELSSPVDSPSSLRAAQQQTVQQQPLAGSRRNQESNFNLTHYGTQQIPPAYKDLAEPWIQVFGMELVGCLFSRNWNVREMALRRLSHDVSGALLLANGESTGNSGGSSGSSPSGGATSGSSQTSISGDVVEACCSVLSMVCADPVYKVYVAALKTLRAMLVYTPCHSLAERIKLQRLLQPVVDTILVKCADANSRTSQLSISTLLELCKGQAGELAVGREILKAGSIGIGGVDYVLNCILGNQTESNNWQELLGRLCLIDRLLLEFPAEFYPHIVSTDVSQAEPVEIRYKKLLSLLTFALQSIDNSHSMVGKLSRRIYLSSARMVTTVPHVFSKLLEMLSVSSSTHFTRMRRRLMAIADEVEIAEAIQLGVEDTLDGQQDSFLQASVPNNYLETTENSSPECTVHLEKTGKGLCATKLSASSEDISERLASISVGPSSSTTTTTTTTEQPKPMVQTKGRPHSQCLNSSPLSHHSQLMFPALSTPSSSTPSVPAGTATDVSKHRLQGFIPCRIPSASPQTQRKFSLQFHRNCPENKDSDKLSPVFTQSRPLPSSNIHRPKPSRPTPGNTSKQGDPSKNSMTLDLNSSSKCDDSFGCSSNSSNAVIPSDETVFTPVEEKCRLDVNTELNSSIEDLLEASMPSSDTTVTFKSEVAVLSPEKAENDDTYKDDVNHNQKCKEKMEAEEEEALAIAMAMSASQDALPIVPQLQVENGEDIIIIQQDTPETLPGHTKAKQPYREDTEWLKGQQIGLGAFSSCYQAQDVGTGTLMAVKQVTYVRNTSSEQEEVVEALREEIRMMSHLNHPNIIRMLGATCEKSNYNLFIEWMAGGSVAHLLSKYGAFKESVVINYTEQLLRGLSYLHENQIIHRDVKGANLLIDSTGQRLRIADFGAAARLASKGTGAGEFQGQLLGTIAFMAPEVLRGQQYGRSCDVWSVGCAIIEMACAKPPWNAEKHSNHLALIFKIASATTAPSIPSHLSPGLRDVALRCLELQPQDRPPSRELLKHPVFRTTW
Chain of Serine/threonine-protein kinase Nek6 (Homo sapiens) (Q9HC98 whole entry): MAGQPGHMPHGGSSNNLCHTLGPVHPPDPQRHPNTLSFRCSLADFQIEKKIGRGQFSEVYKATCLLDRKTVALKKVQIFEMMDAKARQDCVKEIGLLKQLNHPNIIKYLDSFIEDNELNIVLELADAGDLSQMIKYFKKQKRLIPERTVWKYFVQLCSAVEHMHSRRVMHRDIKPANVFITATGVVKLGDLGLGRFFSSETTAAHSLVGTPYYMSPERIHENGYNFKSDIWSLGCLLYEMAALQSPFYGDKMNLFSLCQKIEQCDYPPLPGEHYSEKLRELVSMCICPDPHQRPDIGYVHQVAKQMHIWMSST

CNC(=O)c1ccc(Nc2ncc(C(F)(F)F)c(NCc3nccnc3N(C)S(C)(=O)=O)n2)cc1 [DEFACTINIB]
active: residual activity [19, 40] 23% | residual activity [23, 40] 28% | residual activity [38, 40] 36%
inactive: residual activity [1, 40] 100% | residual activity [2, 40] 81% | residual activity [3, 40] 84% | residual activity [4, 40] 100% | residual activity [5, 40] 98% | inhibition (Rattus norvegicus) 31.4% | residual activity [6, 40] 100% | residual activity [7, 40] 100% | inhibition [8] 30.2% | residual activity [9, 40] 100% | residual activity [10, 40] 71% | residual activity [11, 40] 100% | residual activity [12, 40] 100% | residual activity [13, 40] 92% | residual activity [14, 40] 89% | residual activity [15, 40] 79% | residual activity [16, 40] 87% | residual activity [17, 40] 68% | residual activity [18, 40] 80% | inhibition [20] 16.9% | residual activity [21, 40] 98% | residual activity [22, 40] 60% | residual activity [24, 40] 97% | residual activity [25, 40] 100% | residual activity [26, 40] 54% | residual activity [27, 40] 100% | residual activity [28, 40] 77% | residual activity [29, 40] 97% | residual activity [30, 40] 72% | residual activity [31, 40] 92% | residual activity [32, 40] 57% | residual activity [33, 40] 91% | residual activity [34, 40] 80% | residual activity [35, 40] 98% | residual activity [36, 40] 97% | residual activity [37, 40] 100% | residual activity [39, 40] 100%

CN(c1ccnc(CNc2nc(Nc3ccc4c(c3)CC(=O)N4)ncc2C(F)(F)F)n1)S(C)(=O)=O [PF-00911705]
inactive: residual activity [2, 41] 84% | residual activity [4, 41] 86% | residual activity [5, 41] 86% | residual activity [6, 41] 100% | residual activity [7, 41] 100% | inhibition [8] 1.75% | residual activity [9, 41] 85% | residual activity [12, 41] 86% | residual activity [13, 41] 75% | residual activity [14, 41] 87% | residual activity [15, 41] 100% | residual activity [17, 41] 100% | residual activity [18, 41] 91% | inhibition [20] 8.11% | residual activity [21, 41] 80% | residual activity [25, 41] 89% | residual activity [28, 41] 81% | residual activity [29, 41] 85% | residual activity [30, 41] 50% | residual activity [31, 41] 50% | residual activity [32, 41] 72% | residual activity [35, 41] 79% | residual activity [36, 41] 89% | residual activity [37, 41] 50% | residual activity [38, 41] 100%
active: residual activity [1, 41] 49% | residual activity [3, 41] 46% | inhibition (Rattus norvegicus) 62.1% | residual activity [10, 41] 10% | residual activity [11, 41] 35% | residual activity [16, 41] 46% | residual activity [19, 41] 4.4% | residual activity [22, 41] 15% | residual activity [23, 41] 6.7% | residual activity [24, 41] 12% | residual activity [26, 41] 35% | residual activity [27, 41] 40% | residual activity [33, 41] 1.7% | residual activity [34, 41] 27% | residual activity [39, 41] 45%

Source: ChEMBL document CHEMBL4507299, “Data for DCP probe PF-04554878” (2021)
